Source: US8871510B2, “Methods for generating T lymphocytes from hematopoietic stem cells” (University of Utah Research Foundation, priority 2009, dated 2014)

Experiments:
[1] = tested on: mouse bone marrow-derived progenitor cells; assay: Growth kinetics of bone marrow-derived progenitor cells in OP9-DL1 cultures (cytokines, ΔQ, NH4Cl); type: cell-based
Source text: The combination of Flt3L and IL-7 promotes 10^5-fold expansion over 26 days, while addition of stem cell factor (SCF) enhances this by 5-fold. […] The growth inhibition is mainly due to the failure of selection by TCR signaling, as shown by the failure of CD4^+CD8^+ double positive (DP) cells to survive and expand.
In this Example, several important variables that are important to the successful development of T lymphocytes from bone marrow-derived cells were identified. […] Our experiments defining optimal culture conditions tell us that in order to promote T cell development from bone marrow-derived progenitor cells, a two-stage culture system is required. In the first stage, bone marrow cells are expanded under the influence of lymphoid-specifying cytokines (IL-7 and Flt3 ligand) and notch signaling delivered by OP9-DL1 cells. The expansion of the resulting pro-T cells is robust, reaching a total expansion of 10^5-fold or more (FIG. 1).
All cultures were initiated by seeding 2×10^3 FACS-sorted bone marrow progenitor cells, selected based on the surface phenotype c-kit+Sca-1+Thy-1.1-neg lineage-neg, onto a feeder layer of OP9-DL1 stromal cells. All cultures contained 1 ng/ml IL-7 and 5 ng/ml Flt3L and otherwise identical additives (10% fetal calf serum, stabilized alanyl-glutamine, antibiotics, 2-ME, supplemental amino acids, and supplemental vitamins).

[2] = tested on: Lymphocyte progenitor cells (KLS, Thy1.1-); assay: TLR-L and ascorbic acid effects on NK and T cell development from lymphoid progenitors co-cultured with OP9-DL1; type: cell-based, mouse; conditions: SCF contaminated with LPS through production in E. coli
Description: We therefore designed experiments to evaluate the differential effects of TLR-L and ascorbic acid on NK and T cell development from lymphoid progenitors co-cultured with OP9-DL1 stromal cells. Lymphocyte progenitor cells (KLS, Thy1.1-) were sorted from adult mouse bone marrow and 1000-2000 progenitor cells were seeded per well in a 24 well plate coated with OP9-DL1 stroma. Cultures were supplemented with IL-7 (5 ng/ml), Flt3 ligand (5 ng/ml), and SCF (100 ng/ml) plus one of 5 different TLR-L (TLR1/2, TLR3, TLR4, TLR5, and a crude LPS preparation that likely contains a number of TLR-L), with or without addition of a stabilized form of ascorbic acid, phosphoascorbate at a final concentration of 250 μg/ml. Cells were passaged, counted and re-seeded with fresh media and supplements twice a week over a 30-day period. Immunophenotype and viability were evaluated by flow cytometry. Markers for T cell development included CD44, CD25, CD3, CD4, CD8, T cell receptor […] and T cell receptor γδ chains. NK cells were evaluated for the presence of NKp46, NK1.1, and DX5.

[3] = tested on: mouse lymphoid progenitor cells (c-kit+Sca-1+ lineage-neg CD90.1-neg); assay: Ascorbate versus other anti-oxidants in OP9-DL1 lymphoid progenitor culture (30 days); type: cell-based; conditions: added after 14 days, culture through 30 days; anti-oxidants data not shown
Description: To establish the mechanism by which ascorbic acid promotes T cell development, we initially tested whether the anti-oxidant activity of ascorbic acid plays a key role. To test this, mouse lymphoid progenitor cells were isolated from adult bone marrow tissue by flow sorting, based on the phenotype c-kit+Sca-1+ lineage-neg CD90.1-neg, and 1000-2000 cells were plated per ml in the presence of the cytokines IL7 and Flt3L and the stromal cell line OP9-DL1. Cultures were harvested by forceful pipetting every 3-4 days and reseeded on a fresh monolayer of OP9-DL1 cells. After 14 days in culture, the cell number had expanded approximately 1000-fold (data not shown). At this point, the culture was split into two conditions, with one set of cultures supplemented with 1-ascorbic acid-2-phosphate (250 μg/ml), and the passages were continued through 30 days. […] Numbers indicate the percentage of cells with co-expression of CD4 and CD8 or CD3 and TCR.

Molecule: Cl.N [NH4Cl, reference compound]
- Expansion of the T lineage ([1]; day 15 of culture, FIG. 1B): cease to expand

Molecule: SCF: stem cell factor; in b105 contaminated with LPS through its production in E. coli
- Enhancement of expansion on addition to Flt3L and IL-7 ([1]; over 26 days, FIG. 1A): 5 fold
- Promotion of NK cell development in the OP9-DL1 culture system [2]: particularly effective

Molecule: O=C(O)CCCCC1CCSS1 (stereo not drawn) [alpha-lipoic acid]
- Differentiating effect (CD4/CD8 and CD3/TCR co-expression) [3]: not reproduced

Molecule: CC(=O)N[C@@H](CS)C(=O)O [N-acetyl-cysteine]
- Differentiating effect (CD4/CD8 and CD3/TCR co-expression) [3]: not reproduced

Molecule: N[C@@H](CS)C(=O)O [1-cysteine]
- Differentiating effect (CD4/CD8 and CD3/TCR co-expression) [3]: not reproduced
